Patent US10085963B2, “Process and compositions for achieving mammalian energy balance” (SAMI LABS LIMITED, priority 2015, dated 2018)

Assays:
[1] = system: mammalian pre-adipocytes / adipocytes; experiment: Adipogenesis inhibition, Oil Red O staining; format: cell-based
Procedure: […] C.) of 5% CO2 and 95% air; • f) Fixing, the cells of step e by adding 100 μl of 10% formalin and staining using the Oil Red O technique; • g) Reading the optical density of cells of step f at 492 nm in a microplate reader and expressing the results as inhibitory concentration (IC50) values using the graph pad prism software; • h) Calculating the percentage inhibition of adipogenesis in the cells of steps f and g using the formula, C-T/T×100, wherein C is the absorbance of Oil Red O in differentiating/undifferentiated cells and T is the absorbance of Oil Red O in sample treated differentiating/undifferentiated cells. • i) Adding 200 μl of freshly prepared Adipogenesis induction medium to the wells of step a. • j) Adding 200 μl of freshly prepared Adipogenesis progression medium comprising graded concentrations of forskolin (50 μg/ml and 100 μg/ml respectively) to the wells of step i after 72 hours of incubation with the Adipogenesis induction medium; • k) Incubating the cells treated with forskolin (step j), adipogenesis induction medium (step i) and adipogenesis progression medium (step j) for 48 hours in a humidified atmosphere (37 deg. C.) of 5% (CO2 and 95% air; • l) Fixing the cells of step 1 by adding 100 μl of 10% formal in and staining using the Oil Red O technique; • m) Reading the optical density of cells of step m at 492 nm in as microplate reader and expressing the results as inhibitory concentration (IC50) values using the graph pad prism software; • n) Calculating the percentage inhibition of adipogenesis in the cells of steps m and n using the formula, C-T/T×100, wherein C is the absorbance of Oil Red O in differentiating/undifferentiated cells and T is the absorbance of Oil Red O in sample treated differentiating/undifferentiated cells; and • o) Comparing percentage inhibition of adipogenesis in the cells of steps h and o.

[2] = administration in humans; cited from earlier work

## C=C[C@@]1(C)CC(=O)[C@]2(O)[C@@]3(C)[C@@H](O)CCC(C)(C)[C@@H]3[C@H](O)[C@H](OC(C)=O)[C@@]2(C)O1 [forskolin]
[1]; Adipocyte, forskolin 6.25 μg/ml, read-out: % inhibition of adipogenesis when forskolin is added after differentiation of pre-adipocytes to the adipocyte stage
  inhibition at 6.25 µg/mL: 1.2%
[1]; Adipocyte, forskolin 12.50 μg/ml, read-out: % inhibition of adipogenesis when forskolin is added after differentiation of pre-adipocytes to the adipocyte stage
  inhibition at 12.5 µg/mL: 6.8%
[1]; Adipocyte, forskolin 25 μg/ml, read-out: % inhibition of adipogenesis when forskolin is added after differentiation of pre-adipocytes to the adipocyte stage
  inhibition at 25 µg/mL: 10.6%
[1]; Adipocyte, forskolin 50 μg/ml, read-out: % inhibition of adipogenesis when forskolin is added after differentiation of pre-adipocytes to the adipocyte stage
  inhibition at 50 µg/mL: 12.9%
[1]; Adipocyte, forskolin 100 μg/ml, read-out: % inhibition of adipogenesis when forskolin is added after differentiation of pre-adipocytes to the adipocyte stage
  inhibition at 100 µg/mL: 18.5%
[1]; forskolin 6.25 μg/ml
  % inhibition of adipogenesis when forskolin is added at the pre-adipocyte stage (before differentiation into the adipocyte stage): 10.2%
[1]; forskolin 12.50 μg/ml
  % inhibition of adipogenesis when forskolin is added at the pre-adipocyte stage (before differentiation into the adipocyte stage): 12.8%
[1]; forskolin 25 μg/ml
  % inhibition of adipogenesis when forskolin is added at the pre-adipocyte stage (before differentiation into the adipocyte stage): 19.7%
[1]; forskolin 50 μg/ml
  % inhibition of adipogenesis when forskolin is added at the pre-adipocyte stage (before differentiation into the adipocyte stage): 35.5%
[1]; forskolin 100 μg/ml
  % inhibition of adipogenesis when forskolin is added at the pre-adipocyte stage (before differentiation into the adipocyte stage): 41.8%
[2]
  clinically significant side effects: does not cause clinically significant side effects
